Experimental data published in patent US20240148740A1, “COMBINATION OF AN AHR INHIBITOR WITH A PDX INHIBITOR OR DOXORUBICINE” (Ikena Oncology, Inc., priority 2020, published 2024).
Entries after “also recorded” stand apart in the source; their conditions may differ.

Tests used:
[1] = Phase 1 study, interim cohort pharmacokinetics; format: in vivo, human
Procedure: Serial blood samples are obtained to characterize the plasma PK of Compound A and its major active metabolites. The initial sampling strategy is based on the predicted human PK of this compound. If in the course of evaluating the PK, it is determined that an alternative sampling scheme would be more informative, then that alternative sampling scheme can be implemented if the total amount of blood and blood draws obtained for PK is not increased. Moreover, the total number of samples can be decreased at any time if the initial sampling scheme is considered unnecessarily intensive.

[2] = Nonclinical safety studies in rat (incl. 28-day GLP); format: in vivo
AHR [3] = biological target: T1, AHR (Homo sapiens, UniProt P35869); assay: Phase 1 study, pharmacodynamic whole blood assay of AHR target genes; format: in vivo; conditions: all subjects in the 200 mg, 400 mg, and 800 mg cohorts
T1 sequence (P35869 11-848): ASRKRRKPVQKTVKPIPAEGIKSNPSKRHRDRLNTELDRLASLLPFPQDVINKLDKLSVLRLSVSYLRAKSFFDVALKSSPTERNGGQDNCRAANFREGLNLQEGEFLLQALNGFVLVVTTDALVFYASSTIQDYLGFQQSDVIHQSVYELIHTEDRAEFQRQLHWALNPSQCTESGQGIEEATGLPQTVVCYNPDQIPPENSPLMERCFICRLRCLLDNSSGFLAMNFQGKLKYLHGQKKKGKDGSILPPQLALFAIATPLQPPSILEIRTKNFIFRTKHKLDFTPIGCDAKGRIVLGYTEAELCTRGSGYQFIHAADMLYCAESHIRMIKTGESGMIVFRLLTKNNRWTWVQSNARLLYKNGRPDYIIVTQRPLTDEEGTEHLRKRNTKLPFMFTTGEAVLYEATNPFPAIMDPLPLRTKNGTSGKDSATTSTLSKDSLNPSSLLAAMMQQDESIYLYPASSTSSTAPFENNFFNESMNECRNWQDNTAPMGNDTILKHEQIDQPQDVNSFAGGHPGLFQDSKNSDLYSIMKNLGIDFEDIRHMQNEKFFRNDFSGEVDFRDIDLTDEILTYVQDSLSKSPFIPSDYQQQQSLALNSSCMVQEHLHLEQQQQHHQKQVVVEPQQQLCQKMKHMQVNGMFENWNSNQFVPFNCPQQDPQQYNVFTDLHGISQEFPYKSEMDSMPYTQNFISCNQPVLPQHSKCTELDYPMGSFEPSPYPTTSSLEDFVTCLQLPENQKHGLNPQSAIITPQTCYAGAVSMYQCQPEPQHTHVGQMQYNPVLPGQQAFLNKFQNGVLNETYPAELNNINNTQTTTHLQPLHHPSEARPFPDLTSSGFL
Excerpt: Because the starting dose and any higher dose of Compound A is expected to be near or at the pharmacologically active range, each subject is required to have blood drawn and tumor biopsies for secondary and exploratory pharmacodynamic endpoints. The blood and tumor tissue samples are used to confirm AHR target engagement. Individual subjects can be exempted from the tumor biopsy requirement upon discussion and prior agreement by the Sponsor. The initial sampling strategy is based on the predicted human pharmacodynamics of Compound A. If in the course of evaluating the pharmacodynamics, it is determined that an alternative sampling scheme would be more informative, then that alternative sampling scheme can be implemented if the total amount of blood, blood draws, and tumor biopsies obtained for pharmacodynamics is not increased. Moreover, the total number of samples can be decreased at any time if the initial sampling scheme is considered unnecessarily intensive.

[4] = Nonclinical safety: single-dose and repeated-dose toxicological studies; format: in vivo, rodent and non-rodent species; conditions: species not specified
AHR [5] = biological target: T1, AHR; assay: CYP1B1 gene expression in human whole blood exposed ex vivo; format: cell-based; parameters: endogenous in cells; conditions: Compound A concentrations >0.5 μM; both donors; basal and ligand activated (L-kynurenine) conditions; 24 hours
Procedure: To further examine the effects of Compound A on basal and ligand-activated AHR-dependent gene expression in human immune cells, blood samples from 2 healthy human donors were exposed ex vivo to Compound A in the presence or absence of […] L-kynurenine to activate AHR. After 24 hours, cells were evaluated for CYP1B1 gene expression. […] In both donors, Compound A concentrations >0.5 μM inhibited CYP1B1 gene expression by greater than 50% under basal and ligand activated conditions.

AHR [6] = biological target: T1, AHR; assay: Selectivity for AHR over other receptors, transporters, and kinases

With `CC(C)c1cnn2c(N[C@@H]3CCc4[nH]c5ccccc5c4C3)nc(-c3cncc(F)c3)nc12` [Compound A, (R)—N-(2-(5-fluoropyridin-3-yl)-8-isopropylpyrazolo[1,5-a][1,3,5]triazin-4-yl)-2,3,4,9-tetrahydro-1H-carbazol-3-amine] the “dose proportionality of PK” value ([1]; Cycle 2 Day 1 (C2D1)) was “greater than dose proportional”, the “exposure with increase in dose” value ([1]; interim cohort PK) was “Increased exposure with increase in dose” and the “noteworthy findings (rats)” value [2] was “non-glandular stomach ulceration and edema; also recorded: seminiferous tubule degeneration and debris in the epididymis lumen”. The “inhibition of expression of AHR target gene CYP1B1” value (AHR [3]) was “Robust inhibition”, the noteworthy findings [4] was “emesis, loose stool, dehydration, body weight loss” and the “inhibition of CYP1B1 gene expression” value (AHR [5]) was “greater than 50%”. The “selectivity for AHR over other receptors, transporters, and kinases” value (AHR [6]) was “highly selective”.
